Results: ChEMBL document CHEMBL3046577, “Stereocontrolled synthesis of spirosuccinimide derivative of (+)-hydantocidin” (1995)
The source made the active and inactive calls. The rule behind the calls is not given here.

Experiments:
Format in all cases: functional
Eleusine indica = assay: Herbicidal activity against Eleusine indica at 1000 ppm relative to control
Ambrosia artemisiifolia = assay: Herbicidal activity against Ambrosia artemisiifolia (ragweed) at 1000 ppm relative to control
Xanthium strumarium = assay: Herbicidal activity against Xanthium strumarium (cocklebur) at 1000 ppm relative to control

Structure (SMILES) | Activity (Eleusine indica) | Activity (Ambrosia artemisiifolia) | Activity (Xanthium strumarium)
O=C1C[C@@]2(O[C@H](CO)[C@@H](O)[C@H]2O)C(=O)N1 | 70% | 90% | 90%
O=C1NC(=O)[C@@]2(N1)O[C@H](CO)[C@@H](O)[C@H]2O | Active | Active | Active
